Source: patent publication US11498928B2, “Macrocyclic spiroethers as Mcl-1 inhibitors” (ASCENTAGE PHARMA (SUZHOU) CO., LTD., priority 2019, dated 2022)

Columns and labels:
[1] = target: T1, Mcl-1 protein (residues 171-323) (Homo sapiens, UniProt Q07820); assay: Inhibition of Mcl-1 by fluorescence polarization (FP) competitive binding assay with FAM-Bid tracer; conditions: 2 nM FAM-Bid, 20 nM Mcl-1, 30 min
T1 construct: Tag-free Mcl-1 protein (residues 171-323) was used in the FP assay
In short: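 Tag-free Mcl-1 (20 nM) with 2 nM FAM-Bid peptide in PBS, 0.01% BGG, 0.01% Triton X-100, 5% DMSO, 30 min at room temperature. FP read at Ex 485/Em 528 nm. IC50 from 10-point curves normalised to DMSO and no-protein controls.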

OPM-2 cells = assay: Cell viability assay (OPM-2 cells), CCK-8; assay type: cell-based; conditions: 5% FBS
In short: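 OPM-2 myeloma cells (20000/well) exposed to serially diluted compound for 24 h at 37 °C, 5% CO2, then incubated 4 h with CCK-8 and read at 450 nm. Readings normalized to vehicle; IC50 from nonlinear regression.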

NCI-H929 cells = assay: Cell viability assay (NCI-H929 cells), CCK-8; assay type: cell-based; conditions: 5% FBS
In short: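 NCI-H929 cells from ATCC were seeded at 20000 cells/well in 95 μL of culture medium in 96-well plates and grown for 4 hrs. Compounds, serially diluted in DMSO and further diluted in medium, were added as 5 μL, and cells were incubated for 24 hrs at 37° C. with 5% CO2. Viability was measured with CCK-8.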

T1 sequence (Q07820 171-323): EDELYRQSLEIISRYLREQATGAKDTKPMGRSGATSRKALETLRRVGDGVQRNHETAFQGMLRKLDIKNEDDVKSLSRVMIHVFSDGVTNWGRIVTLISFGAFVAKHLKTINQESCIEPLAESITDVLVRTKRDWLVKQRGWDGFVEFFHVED

Compound	IC50 [1]	IC50 (OPM-2 cells; Homo sapiens, OPM-2, 24 h)	IC50 (NCI-H929 cells; Homo sapiens, NCI-H929, 24 h)	IC50 (OPM-2 cells; 24 h)	IC50 (NCI-H929 cells; 24 h)
C[C@@H]1[C@@H](C)S(=O)(=O)NC(=O)c2ccc3c(c2)N(C[C@@H]2CC[C@H]2[C@@H](OCCN(C)C)C2=C[C@H]1C2)C[C@@]1(CCCc2c1ccc(Cl)c2F)CO3 [compound 77, (1S,11′R,12′S,13′R,16′R,16a′R,18a′R,E)-6-chloro-16′-(2-(dimethylamino)ethoxy)-5-fluoro-11′,12′-dimethyl-3,4,12′,13′,16′,16a′,17′,18′,18a′,19′-decahydro-1′H,2H,3′H,1 PH-spiro[naphthalene-1,2′-[5,7]etheno[13,15]methanocyclobuta[i][1,4]oxazepino[3,4-f][1]thia[2,7]diazacyclohexadecin]-8′(9′H)-one 10′,10′-dioxide]	0.0085 µM	0.068 µM	0.0053 µM		
C[C@@H]1[C@@H](C)S(=O)(=O)NC(=O)c2ccc3c(c2)N(C[C@@H]2CC[C@H]2[C@@H](OCC(=O)N2CCCC2)C2=C[C@H]1C2)C[C@@]1(CCCc2c1ccc(Cl)c2F)CO3 [compound 68, (1S,11′R,12′S,13′R,16′R,16a′R,18a′R,E)-6-chloro-5-fluoro-11′,12′-dimethyl-16′-(2-oxo-2-(pyrrolidin-1-yl)ethoxy)-3,4,12′,13′,16′,16a′,17′,18′,18a′,19′-decahydro-1′H,2H,3′H, 11′H-spiro[naphthalene-1,2′-[5,7]etheno[13,15]methanocyclobuta[i][1,4]oxazepino[3,4-f][1]thia[2,7]diazacyclohexadecin]-8′(9′H)-one 10′,10′-dioxide]	0.015 µM	0.047 µM	0.043 µM		
CO[C@H]1C2=CC(C2)[C@H](C)CS(=O)(=O)NC(=O)c2ccc3c(c2)N(C[C@@H]2CC[C@H]21)C[C@@]1(CCCc2cc(Cl)ccc21)CO3 (single isomer, unassigned) [Cpd. No. 14 (Isomer 2)]	0.011 µM			1.31 µM	0.15 µM
C[C@@H]1[C@@H](C)S(=O)(=O)NC(=O)c2ccc3c(c2)N(C[C@@H]2CC[C@H]2[C@@H](OCc2ccccn2)C2=C[C@H]1C2)C[C@@]1(CCCc2c1ccc(Cl)c2F)CO3 [compound 94, (1S,11′R,12′S,13′R,16′R,16a′R,18a′R,E)-6-chloro-5-fluoro-11′,12′-dimethyl-16′-(pyridin-2-ylmethoxy)-3,4,12′,13′,16′,16a′,17′,18′,18a′,19′-decahydro-1′H,2H,3′H,11′H-spiro[naphthalene-1,2′-[5,7]etheno[13,15]methanocyclobuta[i][1,4]oxazepino[3,4-f][1]thia[2,7]diazacyclohexadecin]-8′(9′H)-one 10′,10′-dioxide]	0.048 µM	0.096 µM	0.2 µM		
C[C@@H]1[C@@H](C)S(=O)(=O)NC(=O)c2ccc3c(c2)N(C[C@@H]2CC[C@H]2[C@@H](OCCN2CCNC(=O)C2)C2=C[C@H]1C2)C[C@@]1(CCCc2c1ccc(Cl)c2F)CO3 [compound 85, (1S,11′R,12′S,13′R,16′R,16a′R,18a′R,E)-6-chloro-5-fluoro-11′,12′-dimethyl-16′-(2-(3-oxopiperazin-1-yl)ethoxy)-3,4,12′,13′,16′,16a′,17′,18′,18a′,19′-decahydro-1′H,2H,3′H, 11′H-spiro[naphthalene-1,2′-[5,7]etheno[13,15]methanocyclobuta[i][1,4]oxazepino[3,4-f][1]thia[2,7]diazacyclohexadecin]-8′(9′H)-one 10′,10′-dioxide]	0.02 µM	0.124 µM	0.073 µM		
CO[C@@]1(CN2CCC(N3CCOCC3)CC2)C2=C[C@@H](C2)[C@H](C)[C@@H](C)S(=O)(=O)NC(=O)c2ccc3c(n2)N(C[C@@H]2CC[C@H]21)C[C@@]1(CCCc2c1ccc(Cl)c2F)CO3 [compound 93, (1S,11′R,12′S,13′R,16′R,16a′R,18a′R)-6-chloro-5-fluoro-16′-methoxy-11′,12′-dimethyl-16′-((4-morpholinopiperidin-1-yl)methyl)-3,4,12′,13′,16′,16a′,17′,18′,18a′,19′-decahydro-1′H,2H,3′H,11′H-spiro[naphthalene-1,2′-[5,7]etheno[13,15]methanocyclobuta[i][1,4]oxazepino[3,4-f][1]thia[2,5,7]triazacyclohexadecin]-8′(9′H)-one 10′,10′-dioxide]	0.019 µM	0.071 µM	0.011 µM		
C[C@@H]1[C@@H](C)S(=O)(=O)NC(=O)c2ccc3c(c2)N(C[C@@H]2CC[C@H]2[C@@H](OCCN2CCCC2)C2=C[C@H]1C2)C[C@@]1(CCCc2c1ccc(Cl)c2F)CO3 [compound 66, (1S,11′R,12′S,13′R,16′R,16a′R,18a′R,E)-6-chloro-5-fluoro-11′,12′-dimethyl-16′-(2-(pyrrolidin-1-yl)ethoxy)-3,4,12′,13′,16′,16a′,17′,18′,18a′,19′-decahydro-1′H,2H,3′H,11′H-spiro[naphthalene-1,2′-[5,7]etheno[13,15]methanocyclobuta[i][1,4]oxazepino[3,4-f][1]thia[2,7]diazacyclohexadecin]-8′(9′H)-one 10′,10′-dioxide]	0.015 µM	0.031 µM	0.0077 µM		
CCO[C@@]1(CN2CCN3CCOC[C@@H]3C2)C2=C[C@@H](C2)[C@H](C)[C@@H](C)S(=O)(=O)NC(=O)c2ccc3c(c2)N(C[C@@H]2CC[C@H]21)C[C@@]1(CCCc2c1ccc(Cl)c2F)CO3 [compound 44, (1S,11′R,12′S,13′R,16′R,16a′R,18a′R,E)-6-chloro-16′-ethoxy-5-fluoro-16′-(((S)-hexahydropyrazino[2,1-c][1,4]oxazin-8(1H)-yl)methyl)-11′,12′-dimethyl-3,4,12,′13′,16′,16a′,17′,18′,18a′,19′-decahydro-1′H,2H,3′H,11′H-spiro[naphthalene-1,2′-[5,7]etheno[13,15]methanocyclobuta[i][1,4]oxazepino[3,4-f][1]thia[2,7]diazacyclohexadecin]-8′(9′H)-one 10′,10′-dioxide]	0.011 µM	0.048 µM	0.017 µM		
C[C@@H]1[C@@H](C)S(=O)(=O)NC(=O)c2ccc3c(c2)N(C[C@@H]2CC[C@H]2[C@@H](N2CCOCC2)C2=C[C@H]1C2)C[C@@]1(CCCc2c1ccc(Cl)c2F)CO3 (single isomer, unassigned) [compound 56]	0.0077 µM	0.065 µM	0.049 µM		
CCO[C@@]1(C(=O)N2CCN3CCOC[C@@H]3C2)C2=C[C@@H](C2)[C@H](C)[C@@H](C)S(=O)(=O)NC(=O)c2ccc3c(c2)N(C[C@@H]2CC[C@H]21)C[C@@]1(CCCc2c1ccc(Cl)c2F)CO3 [compound 46, (1S,11′R,12′S,13′R,16′R,16a′R,18a′R,E)-6-chloro-16′-ethoxy-5-fluoro-11′,12′-dimethyl-16′-((S)-octahydropyrazino[2,1-c][1,4]oxazine-8-carbonyl)-3,4,12′,13′,16′,16a′,17′,18′,18a′,19′-decahydro-1′H,2H,3′H,11′H-spiro[naphthalene-1,2′-[5,7]etheno[13,15]methanocyclobuta[i][1,4]oxazepino[3,4-f][1]thia[2,7]diazacyclohexadecin]-8′(9′H)-one 10′,10′-dioxide]	0.013 µM	0.325 µM	0.2 µM		
CO[C@@H]1C2=CC(C2)CC(C)S(=O)(=O)NC(=O)c2ccc3c(c2)N(C[C@@H]2CC[C@H]21)C[C@@]1(CCCc2cc(Cl)ccc21)CO3 (single isomer, unassigned) [7 (Isomer 2)]	0.0042 µM			2.96 µM	1.9 µM
CO[C@H]1C2=C[C@@H](C2)[C@H](C)[C@@H](C)S(=O)(=O)NC(=O)c2ccc3c(c2)N(C[C@@H]2CC[C@H]21)C[C@@]1(CCCc2c1cc(F)c(Cl)c2F)CO3 [compound 25]	0.42 µM	2.5 µM	3.4 µM		
C[C@@H]1[C@@H](C)S(=O)(=O)NC(=O)c2ccc3c(c2)N(C[C@@H]2CC[C@H]2[C@@H](OCCN2CCOCC2)C2=C[C@H]1C2)C[C@@]1(CCCc2c1ccc(Cl)c2F)CO3 [compound 59, (1S,11′R,12′S,13′R,16′R,16a′R,18a′R,E)-6-chloro-5-fluoro-11′,12′-dimethyl-16′-(2-morpholinoethoxy)-3,4,12′,13′,16′,16a′,17′,18′,18a′,19′-decahydro-1′H,2H,3′H,11′H-spiro[naphthalene-1,2′-[5,7]etheno[13,15]methanocyclobuta[i][1,4]oxazepino[3,4-f][1]thia[2,7]diazacyclohexadecin]-8′(9′H)-one 10′,10′-dioxide]	0.013 µM	0.037 µM	0.0041 µM		
CO[C@@]1(CN2CCOCC2)C2=C[C@@H](C2)[C@H](C)[C@@H](C)S(=O)(=O)NC(=O)c2ccc3c(c2)N(C[C@@H]2CC[C@H]21)C[C@@]1(CCCc2c1ccc(Cl)c2F)CO3 [compound 33, (1S,11′R,12′S,13′R,16′R,16a′R,18a′R,E)-6-chloro-5-fluoro-16′-methoxy-11′,12′-dimethyl-16′-(morpholinomethyl)-3,4,12′,13′,16′,16a′,17′,18′,18a′,19′-decahydro-1′H,2H,3′H,11′H-spiro[naphthalene-1,2′-[5,7]etheno[13,15]methanocyclobuta[i][1,4]oxazepino[3,4-f][1]thia[2,7]diazacyclohexadecin]-8′(9′H)-one 10′,10′-dioxide]	0.013 µM	0.052 µM	0.036 µM		
